In PubChem BioAssay AID328 (DTP/NCI, 2004):
Values joined by “and” are separate entries in the source; they are usually repeats but may differ in a detail not shown here. Identical values can stand only once. Toxic doses and inconclusive results are not listed.

Test system: BDF1 mice, P388 leukemia ip, median survival T/C
Experiment: NCI In Vivo Anticancer Drug Screen. Data for tumor model P388 Leukemia (intraperitoneal) in B6D2F1 (BDF1) mice
Details: endpoint: median survival time, higher = longer survival
Method in brief: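 Compound-treated tumour-bearing mice were compared with vehicle-treated controls. Survival was recorded, and the value is the treated-group measurement divided by the control-group measurement (T/C).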

[1] = dose: 100.0 mg/kg/injection, schedule: Q01DX009 (ip), vehicle: Klucel (hydroxypropylcellulose) (HPC)
[2] = dose: 100.0 mg/kg/injection, schedule: Q04DX003 (ip), vehicle: Klucel (hydroxypropylcellulose) (HPC)
[3] = dose: 200.0 mg/kg/injection, schedule: Q01DX009 (ip), vehicle: Klucel (hydroxypropylcellulose) (HPC)
[4] = dose: 200.0 mg/kg/injection, schedule: Q04DX003 (ip), vehicle: Klucel (hydroxypropylcellulose) (HPC)
[5] = dose: 50.0 mg/kg/injection, schedule: Q01DX009 (ip), vehicle: saline with Tween-80
[6] = dose: 100.0 mg/kg/injection, schedule: Q01DX009 (ip), vehicle: saline with Tween-80
[7] = dose: 100.0 mg/kg/injection, schedule: Q04DX003 (ip), vehicle: saline
[8] = dose: 100.0 mg/kg/injection, schedule: Q04DX003 (ip), vehicle: saline with Tween-80
[9] = dose: 200.0 mg/kg/injection, schedule: Q04DX003 (ip), vehicle: saline with Tween-80
[10] = dose: 400.0 mg/kg/injection, schedule: Q04DX003 (ip), vehicle: saline with Tween-80

In the case of `NNC(=O)C1CCC(=O)O1` (stereo unspecified), the T/C (dose: 75.0 mg/kg/injection, schedule: Q01DX009 (ip), vehicle: saline with Tween-80) is reported as 98 % of control, the T/C (dose: 150.0 mg/kg/injection, schedule: Q01DX009 (ip), vehicle: saline with Tween-80) is reported as 91 % of control and the T/C (dose: 300.0 mg/kg/injection, schedule: Q01DX009 (ip), vehicle: saline with Tween-80) is reported as 100 % of control.
`CCCCNC(C)(C)C(SS)c1ccc(Cl)cc1` (stereo unspecified) was tested, and the T/C (dose: 50.0 mg/kg/injection, schedule: Q01DX009 (ip), vehicle: Klucel (hydroxypropylcellulose) (HPC)) was 100 % of control, the T/C [1] was 115 % of control and the T/C [2] was 95 % of control. The T/C [3] was 105 % of control and the T/C [4] was 100 % of control.
In the case of `O=C(CN1CC1)NCCCCCCCCNC(=O)CN1CC1`, the T/C (dose: 12.5 mg/kg/injection, schedule: Q01DX009 (ip), vehicle: saline with Tween-80) is reported as 200 % of control, the T/C (dose: 25.0 mg/kg/injection, schedule: Q01DX009 (ip), vehicle: saline with Tween-80) is reported as 259 % of control and the T/C (dose: 33.0 mg/kg/injection, schedule: Q04DX003 (ip), vehicle: saline with Tween-80) is reported as 190 % of control. For the same compound, the T/C [5] was 86 % of control, the T/C (dose: 50.0 mg/kg/injection, schedule: Q04DX003 (ip), vehicle: saline with Tween-80) was 209 % of control and the T/C (dose: 75.0 mg/kg/injection, schedule: Q04DX003 (ip), vehicle: saline with Tween-80) was 245 % of control.
For `CCOC(=O)C1=S=C(SC)N(C)C1=O`, the T/C [5] was 106 % of control and 115 % of control and the T/C [6] was 103 % of control and 116 % of control.
`O=C(O)c1ccc(SSc2ccc(C(=O)O)cn2)nc1` was tested, and the T/C [1] was 92 % of control and 104 % of control, the T/C [2] was 100 % of control and the T/C [7] was 118 % of control. The T/C [3] was 109 % of control and 119 % of control, the T/C [4] was 100 % of control and the T/C (dose: 200.0 mg/kg/injection, schedule: Q04DX003 (ip), vehicle: saline) was 109 % of control. For the same compound, the T/C (dose: 400.0 mg/kg/injection, schedule: Q01DX009 (ip), vehicle: Klucel (hydroxypropylcellulose) (HPC)) was 107 % of control and 109 % of control, the T/C (dose: 400.0 mg/kg/injection, schedule: Q04DX003 (ip), vehicle: Klucel (hydroxypropylcellulose) (HPC)) was 100 % of control and the T/C (dose: 400.0 mg/kg/injection, schedule: Q04DX003 (ip), vehicle: saline) was 113 % of control.
`COC1CC(OS(=O)(=O)c2ccc(C)cc2)C(O)C(C)O1` (stereo unspecified) was tested, and the T/C [5] was 98 % of control and 97 % of control, the T/C [6] was 100 % of control and 109 % of control and the T/C [8] was 99 % of control. For the same compound, the T/C (dose: 200.0 mg/kg/injection, schedule: Q01DX009 (ip), vehicle: saline with Tween-80) was 96 % of control and 103 % of control, the T/C [9] was 97 % of control and the T/C [10] was 96 % of control.
In the case of `Cc1ccc(NS(=O)(=O)c2ccccc2)cc1`, the T/C [8] is reported as 100 % of control, the T/C [9] is reported as 100 % of control and the T/C [10] is reported as 110 % of control.
For `NC(N)=NC(N)=Nc1cnccn1`, the T/C (dose: 25.0 mg/kg/injection, schedule: Q01DX009 (ip), vehicle: saline) was 110 % of control, the T/C (dose: 25.0 mg/kg/injection, schedule: Q04DX003 (ip), vehicle: saline) was 100 % of control and the T/C (dose: 50.0 mg/kg/injection, schedule: Q01DX009 (ip), vehicle: saline) was 120 % of control. For the same compound, the T/C (dose: 50.0 mg/kg/injection, schedule: Q04DX003 (ip), vehicle: saline) was 100 % of control, the T/C (dose: 100.0 mg/kg/injection, schedule: Q01DX009 (ip), vehicle: saline) was 120 % of control and the T/C [7] was 95 % of control.
In the case of `COc1cc([C@@H]2c3cc4c(cc3C[C@H]3COC(=O)[C@@H]32)OCO4)cc(OC)c1OC`, the T/C (dose: 1.25 mg/kg/injection, schedule: Q01DX010 (ip), vehicle: saline) is reported as 109 % of control, the T/C (dose: 2.5 mg/kg/injection, schedule: Q01DX001 (ip), vehicle: other) is reported as 105 % of control and the T/C (dose: 2.5 mg/kg/injection, schedule: Q01DX010 (ip), vehicle: saline) is reported as 118 % of control. For the same compound, the T/C (dose: 5.0 mg/kg/injection, schedule: Q01DX001 (ip), vehicle: other) was 115 % of control, the T/C (dose: 10.0 mg/kg/injection, schedule: Q01DX010 (ip), vehicle: other) was 154 % of control and the T/C (dose: 20.0 mg/kg/injection, schedule: Q01DX010 (ip), vehicle: other) was 95 % of control.
